Experimental data taken from patent US20170290774A1, “NEUROKININ-1 RECEPTOR ANTAGONIST COMPOSITION FOR TREATMENT OF DISEASES AND CONDITIONS OF THE RESPIRATORY TRACT” (PLUS VITECH, S.L., priority 2014, published 2017).

Test: Tissue concentration of aprepitant by HPLC after oral or inhaled administration to rabbits
Type: in vivo, New Zealand albino rabbits
Details: for concentration at 7 days: New Zealand White, rabbit, lung, seven days
Method: Herein, New Zealand albino rabbits (New Zealand White Rabbits) with an initial average weight of approximately 3 kg were used. The rabbits were fed ad libitum and were monitored daily to check that signs of toxicity had not appeared. […] This mixture was administered as an aerosol to the airways of a group of 3 of said rabbits (Group 5) in a dose of 0.05 mg/kg body weight per day, to another group of three rabbits (Group 6) in a dose of 0.1 mg/kg body weight per day, to another group of three rabbits (group 7) in a dose of 0.2 mg/kg body weight per day and to another group of three rabbits (Group 8) in a dose of 0.4 mg/kg body weight per day. […] After seven days of treatment all animals were euthanized and necropsied. […] Samples were taken at the peripheral level of the lung parenchyma, just below the pleural surface. Tissue samples were also taken from the nasal cavity, pharynx, larynx and bronchi. […] The average is the arithmetic average calculated for each row or column of each table. The SD is the standard deviation, calculated for each row or column of each table.

C[C@@H](OC1OCCN(Cc2nc(=O)[nH][nH]2)C1c1ccc(F)cc1)c1cc(C(F)(F)F)cc(C(F)(F)F)c1 (stereo in doubt) [Aprepitant, 5-([(2R,3S)-2-((R)-1-[3,5-bis(trifluoromethyl)phenyl]ethoxy)-3-(4-fluorophenyl)morpholino]methyl)-1H-1,2,4-triazol-3(2H)-one] gave a concentration at 7 days (left inferior lobe, po, 80 mg/kg/day, Lung concentration of aprepitant LIPI (left inferior lobe), Group 3, oral 80 mg/kg per day, individual cases) of 3600 ng/g, a concentration at 7 days (left inferior lobe, po, 80 mg/kg/day, Lung concentration of aprepitant LIPI, Average ± SD of cases, Group 3, oral 80 mg/kg per day) of 3700 ng/g and a concentration at 7 days (left superior lobe, inhaled, 0.2 mg/kg/day, Lung concentration of aprepitant LSPI, Average ± SD of cases, Group 7, inhalation (aerosol, olive oil) 0.2 mg/kg per day) of 6030 ng/g. The concentration at 7 days (left superior lobe, inhaled, 0.4 mg/kg/day, Lung concentration of aprepitant LSPI (left superior lobe), Group 8, inhalation (aerosol, olive oil) 0.4 mg/kg per day, individual cases) was 9900 ng/g, the concentration at 7 days (left superior lobe, inhaled, 0.4 mg/kg/day, Lung concentration of aprepitant LSPI, Average ± SD of cases, Group 8, inhalation (aerosol, olive oil) 0.4 mg/kg per day) was 10000 ng/g and the concentration at 7 days (left superior lobe, po, 10 mg/kg/day, Lung concentration of aprepitant LSPI (left superior lobe), Group 1, oral 10 mg/kg per day, individual cases) was 500 ng/g. The concentration at 7 days (left superior lobe, po, 10 mg/kg/day, Lung concentration of aprepitant LSPI, Average ± SD of cases, Group 1, oral 10 mg/kg per day) was 600 ng/g, the concentration at 7 days (left superior lobe, po, 40 mg/kg/day, Lung concentration of aprepitant LSPI (left superior lobe), Group 2, oral 40 mg/kg per day, individual cases) was 5300 ng/g and the concentration at 7 days (left superior lobe, po, 40 mg/kg/day, Lung concentration of aprepitant LSPI, Average ± SD of cases, Group 2, oral 40 mg/kg per day) was 4300 ng/g. It also gave a concentration at 7 days (left superior lobe, po, 80 mg/kg/day, Lung concentration of aprepitant LSPI (left superior lobe), Group 3, oral 80 mg/kg per day, individual cases) of 3900 ng/g, a concentration at 7 days (left superior lobe, po, 80 mg/kg/day, Lung concentration of aprepitant LSPI, Average ± SD of cases, Group 3, oral 80 mg/kg per day) of 4700 ng/g and a concentration at 7 days (right inferior lobe, inhaled, 0.4 mg/kg/day, Lung concentration of aprepitant LIPD (right inferior lobe), Group 8, inhalation (aerosol, olive oil) 0.4 mg/kg per day, individual cases) of 9900 ng/g. The concentration at 7 days (right inferior lobe, inhaled, 0.4 mg/kg/day, Lung concentration of aprepitant LIPD, Average ± SD of cases, Group 8, inhalation (aerosol, olive oil) 0.4 mg/kg per day) was 10100 ng/g, the concentration at 7 days (right inferior lobe, po, 10 mg/kg/day, Lung concentration of aprepitant LIPD (right inferior lobe), Group 1, oral 10 mg/kg per day, individual cases) was 600 ng/g and the concentration at 7 days (right inferior lobe, po, 10 mg/kg/day, Lung concentration of aprepitant LIPD, Average ± SD of cases, Group 1, oral 10 mg/kg per day) was 800 ng/g. It also gave a concentration at 7 days (right inferior lobe, po, 40 mg/kg/day, Lung concentration of aprepitant LIPD (right inferior lobe), Group 2, oral 40 mg/kg per day, individual cases) of 3300 ng/g, a concentration at 7 days (right inferior lobe, po, 40 mg/kg/day, Lung concentration of aprepitant LIPD, Average ± SD of cases, Group 2, oral 40 mg/kg per day) of 3500 ng/g and a concentration at 7 days (right inferior lobe, po, 80 mg/kg/day, Lung concentration of aprepitant LIPD (right inferior lobe), Group 3, oral 80 mg/kg per day, individual cases) of 5100 ng/g. The concentration at 7 days (right inferior lobe, po, 80 mg/kg/day, Lung concentration of aprepitant LIPD, Average ± SD of cases, Group 3, oral 80 mg/kg per day) was 5500 ng/g, the concentration at 7 days (right middle lobe, inhaled, 0.4 mg/kg/day, Lung concentration of aprepitant LMPD (right middle lobe), Group 8, inhalation (aerosol, olive oil) 0.4 mg/kg per day, individual cases) was 10000 ng/g and the concentration at 7 days (right middle lobe, inhaled, 0.4 mg/kg/day, Lung concentration of aprepitant LMPD, Average ± SD of cases, Group 8, inhalation (aerosol, olive oil) 0.4 mg/kg per day) was 10000 ng/g. It also gave a concentration at 7 days (right middle lobe, po, 10 mg/kg/day, Lung concentration of aprepitant LMPD (right middle lobe), Group 1, oral 10 mg/kg per day, individual cases) of 1100 ng/g, a concentration at 7 days (right middle lobe, po, 10 mg/kg/day, Lung concentration of aprepitant LMPD, Average ± SD of cases, Group 1, oral 10 mg/kg per day) of 1300 ng/g and a concentration at 7 days (right middle lobe, po, 40 mg/kg/day, Lung concentration of aprepitant LMPD (right middle lobe), Group 2, oral 40 mg/kg per day, individual cases) of 4200 ng/g. For the same compound, the concentration at 7 days (right middle lobe, po, 40 mg/kg/day, Lung concentration of aprepitant LMPD, Average ± SD of cases, Group 2, oral 40 mg/kg per day) was 4000 ng/g, the concentration at 7 days (right middle lobe, po, 80 mg/kg/day, Lung concentration of aprepitant LMPD (right middle lobe), Group 3, oral 80 mg/kg per day, individual cases) was 4800 ng/g and the concentration at 7 days (right middle lobe, po, 80 mg/kg/day, Lung concentration of aprepitant LMPD, Average ± SD of cases, Group 3, oral 80 mg/kg per day) was 5200 ng/g. It also gave a concentration at 7 days (right middle lobe, po, 100 mg/kg/day, Lung concentration of aprepitant LMPD (right middle lobe), Group 4, oral 100 mg/kg per day, individual cases) of 5800 ng/g, a concentration at 7 days (right superior lobe, inhaled, 0.4 mg/kg/day, Lung concentration of aprepitant LSPD (right superior lobe), Group 8, inhalation (aerosol, olive oil) 0.4 mg/kg per day, individual cases) of 10100 ng/g and a concentration at 7 days (right superior lobe, inhaled, 0.4 mg/kg/day, Lung concentration of aprepitant LSPD, Average ± SD of cases, Group 8, inhalation (aerosol, olive oil) 0.4 mg/kg per day) of 9900 ng/g. It also gave a concentration at 7 days (right superior lobe, po, 10 mg/kg/day, Lung concentration of aprepitant LSPD, Average ± SD of cases, Group 1, oral 10 mg/kg per day) of 900 ng/g, a concentration at 7 days (right superior lobe, po, 40 mg/kg/day, Lung concentration of aprepitant LSPD (right superior lobe), Group 2, oral 40 mg/kg per day, individual cases) of 3200 ng/g and a concentration at 7 days (right superior lobe, po, 40 mg/kg/day, Lung concentration of aprepitant LSPD, Average ± SD of cases, Group 2, oral 40 mg/kg per day) of 3500 ng/g. For the same compound, the concentration at 7 days (right superior lobe, po, 80 mg/kg/day, Lung concentration of aprepitant LSPD (right superior lobe), Group 3, oral 80 mg/kg per day, individual cases) was 4900 ng/g, the concentration at 7 days (right superior lobe, po, 80 mg/kg/day, Lung concentration of aprepitant LSPD, Average ± SD of cases, Group 3, oral 80 mg/kg per day) was 4100 ng/g and the concentration at 7 days (right superior lobe, po, 100 mg/kg/day, Lung concentration of aprepitant LSPD (right superior lobe), Group 4, oral 100 mg/kg per day, individual cases) was 5100 ng/g. For the same compound, the “relationship between dose and concentration in the lungs” value (inhalation, 0.05 to 0.4 mg/kg per day) was “proportional to the dose administered by inhalation”.
